From the supplement of paper PMC10290057
Counter-ions that a name gives are not always drawn.

Test system: HCT116
Assay: efficacy (fitted maximal change in viability relative to DMSO control); higher = less cytotoxic (negative = loss of viability)
Settings: 48 h
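Further: Luminescence-based viability readout, five doses per compound, normalized against on-plate DMSO and empty-well controls, followed by dose-response curve fitting for every drug.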

SMILES	efficacy [%]
CN(C)[C@H]\1[C@@H]2C[C@@H]\3CC4=C(C(=C(NC(=O)CNC(C)(C)C)C=C4N(C)C)O)C(=O)C3=C(O)/[C@@]2(O)C(=O)\C(=C1O)C(N)=O [Tigecycline]	-18.8
S=P(N1CC1)(N1CC1)N1CC1 [ThioTEPA]	-13.1
CC(=O)O/N=C1\C(=O)N(Cc2cc(Cl)ccc2Cl)c2ccc(Cl)cc21	-71.8
CNC(=O)c1c(-c2ccc(F)cc2)oc2cc(N(CCO)[S+](C)(=O)[O-])c(C3CC3)cc12 [Nesbuvir]	-8.31
CC(C)(C)C1=NC2=C([NH]1)C3=CC=C(F)C=C3C4=C2\C=C/NC4=O [Pyridone 6]	-28.4
OC1=CC2=C(C=C1)C(=O)\C(=C(O2)\C3=CC(=C(O)C=C3)O)O [Fisetin]	-56.3
C[C@]12CC[C@@H]3c4ccc(O)cc4CC[C@H]3[C@@H]1[C@@H](O)[C@@H](O)[C@@H]2O [Estetrol]	-16.1
Cn1cc(-c2ccc3nnc(C(F)(F)c4ccc5ncccc5c4)n3n2)cn1	-26.2
OC[C@H]1O[C@H]([C@H](O)[C@@H]1O)N2/C=C\C=N/C2=O [Zebularine]	-11.7
CN1C(=O)[C@@H](NC(=O)c2cc(Cc3ccccc3)on2)COc2ccccc21 [GSK-481]	-10.3
CCCCCCCCCCCCc1ccc([S+](=O)([O-])Nc2nncs2)cc1 [PHT-427]	-13.9
CC(=O)O[C@@]1(CC[C@H]2[C@@H]3\C=C(C)/C4=C/C(=O)CC[C@]4(C)[C@H]3CC[C@]12C)C(C)=O [Megestrol acetate]	-13.4
C=CC[N+]1([C@H]2C[C@H]3[C@@H]4CC[C@H]5C[C@H](O)[C@@H](N6CCOCC6)C[C@]5(C)[C@H]4CC[C@]3(C)[C@H]2OC(C)=O)CCCC1 [Rocuronium bromide]	-14.6
CC(C)(Sc1cc(C(C)(C)C)c(O)c(C(C)(C)C)c1)Sc1cc(C(C)(C)C)c(O)c(C(C)(C)C)c1 [Probucol]	-25.9
C[C@]\12CCC(=O)\C=C1[C@@H]3C[C@@H]3[C@@H]4[C@@H]2CC[C@@]5(C)[C@H]4[C@@H]6C[C@@H]6[C@@]57CCC(=O)O7 [Drospirenone]	-38.8
CCOCC(O)COc1ccc(NC(=O)CC[S+](C)C)cc1 (stereo unspecified) [Suplatast tosylate]	-20.9
O=C1NC(=O)/C(=C/c2cccc(C(F)(F)F)c2)S1 [SMI-4a]	-22.5
CN(C)CCNC(=O)NC[C@H]1CC[C@@H]2[C@H](O1)c1cc(C(F)(F)F)ccc1N[C@H]2c1ccccc1	-63.4
CC[C@H]1OC(=O)[C@H](C)[C@@H](O[C@H]2C[C@@](C)(OC)[C@@H](O)[C@H](C)O2)[C@H](C)[C@@H](O[C@@H]2O[C@H](C)C[C@H](N(C)C)[C@H]2O)[C@](C)(O)C[C@@H](C)C(=O)[C@H](C)[C@@H](O)[C@]1(C)O [Erythromycin]	23
CN(C1=CC=CC=C1)C(=O)C/2=C(O)/C3=C(C=CC=C3)N(C)C2=O [Roquinimex]	-11.9
C=CC(=O)Nc1cccc(C)c1Nc1ncc2cc(-c3c(Cl)c(OC)cc(OC)c3Cl)ccc2n1 [BLU-9931]	-50.4
CCOC(=O)[C@H](CCc1ccccc1)N[C@H]1CS[C@H](c2cccs2)CN(CC(=O)O)C1=O.Cl [Temocapril hydrochloride]	10.5
CN[C@@H](C)C(=O)N[C@H](C(=O)N1CCC[C@H]1c1nc(C(=O)c2ccc(F)cc2)cs1)C1CCCCC1 [LCL-161]	-23.8
N#CC(O[C@@H]1O[C@H](CO[C@@H]2O[C@H](CO)[C@@H](O)[C@H](O)[C@H]2O)[C@@H](O)[C@H](O)[C@H]1O)c1ccccc1 (stereo partly specified) [Amygdalin]	29

SMILES	efficacy [%]
CSCC[C@H](NC(=O)[C@H](Cc1c[nH]c2ccccc12)NC(=O)CCNC(=O)OC(C)(C)C)C(=O)N[C@@H](CC(=O)O)C(=O)N[C@@H](Cc1ccccc1)C(N)=O [Pentagastrin]	-5.16
C#CCN[C@@H]1CCc2ccccc21 [Rasagiline mesylate]	-9.57
CN(C)CCCN1c2ccccc2CCc2ccc(Cl)cc21 [Clomipramine hydrochloride]	-84.3
CN1C(=O)/C(=C(NC2=CC=C(I)C=C2F)\C3=C1\N=C/N(C[C@@H](O)CO)C3=O)F [TAK-733]	-73.1
CCN1\C=C(\C(O)=O)C(=O)C2=C1C=C(N3CCNCC3)C(=C2)F [Norfloxacin]	9.53
CC(C)C[C@H](NC(=O)[C@H](Cc1ccccc1)NC(=O)OCc1ccccc1)C(=O)C=O [Cathepsin S Inhibitor]	-64.5
Fc1cccc(-n2cnc3c(NCc4nc5ccc(F)c(F)c5[nH]4)nc(N4CCOCC4)nc32)c1 [SR-3029]	-53.1
Cc1ccnc(N[S+](=O)([O-])c2ccc(NC(=O)Nc3ccc([S+](=O)([O-])Nc4nccc(C)n4)cc3)cc2)n1	-21.3
CN(C)c1ccc(Nc2nc(N)n(C(=O)c3c(F)cccc3F)n2)cc1	-100
CC1(C)Cc2c(-c3ccccc3)c(-c3ccc(Cl)cc3)c(CC(=O)O)n2C1 [Licofelone]	-36.6
COCCCc1sc(-c2ccccc2)nc1C(=O)Nc1ccccc1-c1nc2cc(CN3CCCC3)cnc2s1 [SRT-3025]	7.71
CNC(=O)c1c(C)oc2cc(Oc3ncnc4cc(OC)c(OC)cc34)ccc12 [Fruquintinib]	-11.4
Clc1ccccc1CN1CCc2sccc2C1 [Ticlopidine hydrochloride]	-21.1
CC(C)C(N)C(=O)OCC(CO)OC[N]1C=NC2=C1N\C(=N/C2=O)N (stereo unspecified) [Cymeval]	-19.5
OC1=CC2=C(C(=C1)O)C(=O)\C(=C(/O2)C3=CC(=C(O)C(=C3)O)O)O [Myricetin]	-26.3
CN(Cc1cc(Br)cc(Br)c1N)C1CCCCC1 [Bromhexine hydrochloride]	-27.2
Cn1ccc2cc3c(cc21)CCN3C(=O)Nc1cccnc1	-22.8
CCN1\C=C(C(O)=O)/C(=O)C2=C1C=C(N3CCN(C)CC3)C(=C2)F [Pefloxacin]	5.51
N#CCC1(n2cc(-c3ncnc4[nH]ccc34)cn2)CN(C2CCN(C(=O)c3ccnc(C(F)(F)F)c3F)CC2)C1 [Itacitinib]	-26.4
CN1CCN(CC1)C2=C(NC(=O)C/3=C/NC(=O)/C=C3C(F)(F)F)C=C(C=C2)C4=CC(=CC=C4)CN5CCOCC5 [OICR-9429]	-23.2
OC1=CC2=C(C(=O)\C=C(/O2)C3=CC=CC=C3)C(=C1O)O [Baicalein]	-14.7
N#Cc1ccc(NC(=O)Nc2ccccc2Br)c2nn[nH]c12	-26
C[C@]12CC[C@@H]3c4ccc(O)cc4C[C@@H](CCCCCCCCC[S+]([O-])CCCC(F)(F)C(F)(F)F)[C@H]3[C@@H]1CC[C@@H]2O (stereo partly specified) [Fulvestrant]	-14.2
C=C(C)[C@@H]1CC[C@]2(C)CC[C@]3(C)[C@H](CC[C@@H]4[C@@]5(C)CC[C@H](O)C(C)(C)[C@@H]5CC[C@]43C)[C@@H]12 [Lupeol]	-15.6

SMILES	efficacy [%]
CC[S+](=O)([O-])N1CCC([C@@H](C)n2c(C)c(/C(O)=N/Cc3c(OC)cc(C)nc3O)c3ccccc32)CC1 (racemic) [CPI-169 racemate]	-16.2
COC(=O)[C@@H]1CC/2=C/C(=O)CC[C@]2(C)[C@@]34O[C@@H]3C[C@@]5(C)[C@@H](CC[C@@]56CCC(=O)O6)[C@H]14 [Eplerenone]	-6.15
CCCCc1ccc(N[S+](=O)([O-])c2ccc(C)c(C(=O)N3CCN(c4cccc(C)c4C)CC3)c2)cc1 [IDH-001]	-48.4
C=Cc1cc(O)cc2nc(-c3ccc(O)c(F)c3)oc12 [Prinaberel]	-14.8
Oc1ccc2ccccc2c1SSc1c(O)ccc2ccccc12 [IPA-3]	-115
Cc1cc(SCc2sc(-c3ccc(C(F)(F)F)c(F)c3)nc2C)ccc1OCC(=O)O [GW-0742]	-21
Cc1cc(O)cc2c1[C@]1(C)CC[C@H]3C(C)(C)CCC[C@]3(C)[C@H]1C2 [AQX-MN-100]	19.8
CC(C)C[C@H](CO)Nc1nc(S[C@@H](C)c2ccccc2)nc2nc(N)sc12 [AZD-8797]	-86.1
Nc1nc(OCc2ccccc2)c2nc[nH]c2n1 [O6-Benzylguanine]	-34.3
Cc1c(F)cc(C(=O)NC2CC2)cc1-c1ccc(C(=O)NCC(C)(C)C)cn1 [Losmapimod]	-18.8
NCCCCCC(=O)O [Aminocaproic acid]	-11.3
F\C1=C\N(C2CCCO2)C(=O)NC1=O (stereo unspecified) [Tegafur]	-8.62
O=[N+]([O-])c1ccc(-c2nc(-c3ccc(F)cc3)c(-c3ccncc3)[nH]2)cc1	-23.7
c1ccc(CNCc2ccc(CN3CCCNCCNCCCNCC3)cc2)nc1 [AMD-3465]	-13.1
Cn1cc(-c2ccc3nnc(Sc4ccc5ncccc5c4)n3n2)cn1 [SGX-523]	-6.72
CN(NC(=O)CC(=O)NN(C)C(=S)c1ccccc1)C(=S)c1ccccc1 [Elesclomol (STA-4783)]	-39.3
CCN1CCCC1CNC(=O)c1cc([S+](=O)([O-])CC)c(N)cc1OC (stereo unspecified) [Amisulpride]	-6.46
Cc1ccc(NC(=O)c2cccc(N(C)C)c2)cc1NC(=O)c1ccc(O)cc1	-21.6
O=C1O[C@]2(CC[C@@H](C(=O)Nc3ccn(-c4ccccc4F)n3)CC2)c2cnccc21 [MK-0557]	-11.9
NCCCC[C@H](NC(=O)[C@@H](NC(=O)[C@H](Cc1c[nH]c2ccccc12)NC(=O)[C@H](CCCCN)NC(=O)[C@H](CCCCN)NC(=O)[C@H](Cc1c[nH]c2ccccc12)NC(=O)[C@H](Cc1c[nH]c2ccccc12)NC(=O)[C@H](CCCCN)NC(=O)[C@@H](N)CCCCN)C(c1ccccc1)c1ccccc1)C(N)=O [LTX-315]	-89.2
Cn1cc(-c2nc(N[C@@H]3CCCC[C@@H]3N)c(F)c3c2C(=O)NC3)cn1 [TAK-659]	-31.1
C[S+](=O)([O-])c1ccc(C(=O)Nc2ccc(Cl)c(-c3ccccn3)c2)c(Cl)c1 [Vismodegib]	-23.8
CN1C(=O)\C(=C/C2=C1N=C(NC3CCOCC3)N=C2)OC4=C(F)C=C(F)C=C4 [R-1487]	-14.4
